Data set [1] deals with AATAAT_ATTATT hairpin (DNA, hairpin) GGGGAATAATCGCGATTATTCCCCAATAATCGCGATTATT
Put plainly: SPR competition. The conditions noted are these: 200 mM NaCl, 3 mM EDTA, 10 mM HEPES pH 7.4, 0.05% P-20, 25 °C.

For data set [2] the test system is unchanged. Put plainly: SPR (Biacore X-100). The conditions noted are these: Na+ 200 mM; 25 °C; site 1 of 2; running buffer for compound titration not explicitly stated. For orientation: Surface plasmon resonance follows binding to a sensor surface in real time, without labels.
Data set [3] has as its system AATT hairpin (DNA, hairpin) CGAATTCGTCTCCGAATTCG
Put plainly: SPR (Biacore X-100). The following applies: Na+ 200 mM; 25 °C; site 1 of 2; running buffer for compound titration not explicitly stated.

In data set [4] the test system is (AT)4 hairpin (DNA, hairpin) CATATATATCCCCATATATATG
In words: SPR (Biacore X-100). The conditions noted are these: Na+ 200 mM; 25 °C; site 1 of 2; running buffer for compound titration not explicitly stated.

For data set [5], the system named is (CG)4 hairpin (DNA, hairpin) CGCGCGCGTTTTCGCGCGCG
Put plainly: SPR (Biacore X-100). The conditions noted are these: Na+ 200 mM; 25 °C; one-site fit; running buffer for compound titration not explicitly stated.

The next data set has as its target HMGB1 box A and box B (rat, UniProt P63159 8-165). Put plainly: SPR; K1, high-affinity site of two-site fit; SPR (Biacore X-100), HEPES 1 buffer: 10 mM HEPES, 3 mM EDTA, 200 mM NaCl, 0.05% P-20, pH 7.4, 25 C. The following applies: protein: recombinant; tags: GST (GST-tagged construct in pGEX2T); label: 5'-biotin; hairpin as stated by the authors; loop underlining lost in text.

Sequence of HMGB1 box A and box B (P63159 8-165): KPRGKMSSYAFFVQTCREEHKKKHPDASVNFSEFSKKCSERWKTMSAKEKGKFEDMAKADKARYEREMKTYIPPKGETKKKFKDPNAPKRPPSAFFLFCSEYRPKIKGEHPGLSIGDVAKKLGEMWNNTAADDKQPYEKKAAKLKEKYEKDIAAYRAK

On to `O=C(Nc1ccc(NC2=NCCN2)c(Cl)c1)c1ccc(NC2=NCCN2)cc1`, for which the IC50 in data set [1] (displaces 2 μM HMGA1a(Δ50-91) protein) was found to be 6000 nM; in data set [1] (displaces 2 μM HMGB1 (box A+B) protein), 3400 nM. Further, the “K1 (KD)” value came out at 430 nM in data set [2], 262 nM in data set [3] and 650 nM in data set [4]. Besides, the “K (KD)” value in data set [5] was 6850 nM.

As for GGGGAATAATCGCGATTATTCCCCAATAATCGCGATTATT (structured_DNA) [AATAAT_ATTATT hairpin], the Kd with HMGB1 box A and box B was 330 nM.

One may read the IC50 as the concentration that inhibits the measured activity by half. Read a high IC50 as lower potency. The Kd is the free concentration of one partner at which half of the binding sites on the other are occupied at equilibrium, for simple one-to-one binding.

Values taken from paper PMC5737332.
